DC50 and Dmax data for 11 compounds are collected here from patent publication US12599672B2, “KRAS proteolysis targeting chimeras” (PAQ Therapeutics Inc., priority 2023, dated 2026).

What all share (type): cell-based
One assay concerns the target T1, KRAS G12V (Homo sapiens, UniProt P01116, G12V).
T1 construct: SW620-KRAS (G12V)-HiBit-KI cell (Pharmaron); host or cells: SW620-KRAS (G12V)-HiBit-KI cells (HiBiT knock-in at the endogenous KRAS locus)
Kind of assay: KRAS G12V HiBit assay. The settings on record: SW620-KRAS (G12V)-HiBit-KI cells, compound treatment for 24 hours, class symbols. The method in brief: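 Luminescence from lytic Nano-Glo HiBiT detection with LgBiT read KRAS G12V levels after 24 h compound exposure. Dilutions were 10-point, 3-fold, from a 0.3 mM DMSO stock. Degradation activity was normalised to cells given 0.1% DMSO alone.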

The next assay deals with T2, KRAS (Homo sapiens, UniProt P01116).
T2 construct: endogenous in cells; host or cells: KE39 (KRAS amplified) cells
Kind of assay: KRASamp MSD assay. The settings on record: KE39 (KRAS amplified) cells, treated with test compounds for 24 hr, MSD readout of KRAS degradation. The method in brief: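 Degradation DC50 derived by curve fitting, with KRAS levels quantified by MSD electrochemiluminescence (capture/detection antibodies, recombinant WT KRAS standard). Lysates prepared from KE39 cells (KRAS amplified) exposed to test compounds for 24 hr.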

The next assay has as its target T3, KRAS G12D (Homo sapiens, UniProt P01116, G12D).
T3 construct: AsPc-1-KRAS (G12D)-HiBit-KI cell (Pharmaron); host or cells: AsPc-1-KRAS (G12D)-HiBit-KI cells (HiBiT knock-in at the endogenous KRAS locus)
Kind of assay: KRAS G12D HiBit assay. The settings on record: AsPc-1-KRAS (G12D)-HiBit-KI cell, compound treatment for 24 hours; for DC50: absolute DC50. The method in brief:
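HiBiT luminescence, detected by adding lytic buffer, substrate and LgBiT protein, served as the KRAS G12D read-out. Compounds, serially diluted 3-fold over 10 points from 0.3 mM DMSO stock, were on cells for 24 h; percent inhibition normalized to cells given 0.1% DMSO only.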

The mark [1] stands for this setting: numeric bounds given in place of class symbols.

Structures are written as SMILES.

T3 sequence (P01116 1-188 isoform P01116-2 G12D): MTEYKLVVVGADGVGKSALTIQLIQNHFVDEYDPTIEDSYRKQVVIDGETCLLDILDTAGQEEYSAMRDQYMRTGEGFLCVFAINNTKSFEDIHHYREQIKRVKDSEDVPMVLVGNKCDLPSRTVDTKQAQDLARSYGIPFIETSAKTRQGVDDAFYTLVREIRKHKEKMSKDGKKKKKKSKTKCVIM
T2 sequence (P01116 1-188 isoform P01116-2): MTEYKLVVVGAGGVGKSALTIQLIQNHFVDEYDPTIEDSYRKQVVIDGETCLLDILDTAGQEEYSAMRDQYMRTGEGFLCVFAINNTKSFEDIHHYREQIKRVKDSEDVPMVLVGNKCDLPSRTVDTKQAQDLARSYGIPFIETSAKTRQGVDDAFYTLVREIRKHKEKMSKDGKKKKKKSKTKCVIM
T1 sequence (P01116 1-188 isoform P01116-2 G12V): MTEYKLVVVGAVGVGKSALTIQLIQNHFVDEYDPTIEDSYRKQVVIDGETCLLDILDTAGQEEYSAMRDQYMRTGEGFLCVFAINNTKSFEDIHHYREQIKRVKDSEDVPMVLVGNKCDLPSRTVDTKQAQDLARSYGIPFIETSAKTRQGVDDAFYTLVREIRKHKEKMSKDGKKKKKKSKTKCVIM

As for `CCc1c(F)ccc2cc(O)cc(-c3ncc4c(N5CCC[C@@](C)(O)C5)nc(OC[C@]56CCCN5[C@H](COC(=O)N5CCC(CCCCOc7ccc8c(c7)n(C)c(=O)n8C7CCC(=O)NC7=O)CC5)CC6)nc4c3F)c12` (stereo partly drawn) [Compound 303, ((3S,7aR)-7a-(((7-(8-ethyl-7-fluoro-3-hydroxynaphthalen-1-yl)-8-fluoro-4-((R)-3-hydroxy-3-methylpiperidin-1-yl)pyrido[4,3-d]pyrimidin-2-yl)oxy)methyl)hexahydro-1H-pyrrolizin-3-yl)methyl 4-(4-((1-(2,6-dioxopiperidin-3-yl)-3-methyl-2-oxo-2,3-dihydro-1H-benzo[d]imidazol-5-yl)oxy)butyl)piperidine-1-carboxylate], the figures for the DC50 at KRAS G12V, at KRAS and at KRAS G12D (class symbols) were less than 10 nM, 1 to 10 nM and less than 100 nM, respectively.

Take `C#Cc1c(F)ccc2cc(O)cc(-c3ncc4c(N5CCC[C@@](C)(O)C5)nc(OC[C@@]56CCCN5[C@H](COC(=O)N5CCC(CC#Cc7ccc8c(c7)n(C)c(=O)n8C7CCC(=O)NC7=O)CC5)CC6)nc4c3F)c12` (stereo partly drawn) [Compound 375, ((3S,7aS)-7a-(((7-(8-ethynyl-7-fluoro-3-hydroxynaphthalen-1-yl)-8-fluoro-4-((R)-3-hydroxy-3-methylpiperidin-1-yl)pyrido[4,3-d]pyrimidin-2-yl)oxy)methyl)hexahydro-1H-pyrrolizin-3-yl)methyl 4-(3-(1-(2,6-dioxopiperidin-3-yl)-3-methyl-2-oxo-2,3-dihydro-1H-benzo[d]imidazol-5-yl)prop-2-yn-1-yl)piperidine-1-carboxylate]: the DC50 at KRAS G12V was less than 10 nM; at KRAS it was 1 to 10 nM; on KRAS G12D (class symbols), less than 100 nM.

For the compound `CCc1c(F)ccc2cc(O)cc(-c3ncc4c(N5CCC[C@@](C)(O)C5)nc(OC[C@@]56CCCN5[C@H](CN5CCC(CN7CCC(c8ccc9c(c8)n(C)c(=O)n9C8CCC(=O)NC8=O)CC7)CC5)CC6)nc4c3F)c12` (stereo partly drawn) [Compound 402, 3-(5-(1-((1-(((35,7aS)-7a-(((7-(8-Ethyl-7-fluoro-3-hydroxynaphthalen-1-yl)-8-fluoro-4-((R)-3-hydroxy-3-methylpiperidin-1-yl)pyrido[4,3-d]pyrimidin-2-yl)oxy)methyl)hexahydro-1H-pyrrolizin-3-yl)methyl)piperidin-4-yl)methyl)piperidin-4-yl)-3-methyl-2-oxo-2,3-dihydro-1H-benzo[d]imidazol-1-yl) piperidine-2,6-dione], the results for the DC50 at KRAS G12V, at KRAS and at KRAS G12D (class symbols) were 10 to 100 nM, 1 to 10 nM and less than 100 nM, respectively.

As to `CCc1c(F)ccc2cc(O)cc(-c3ncc4c(N5CCC[C@@](C)(O)C5)nc(OC[C@]56CCCN5[C@H](COC(=O)NC5CCCN(c7ccc8c(c7)n(C)c(=O)n8C7CCC(=O)NC7=O)C5)CC6)nc4c3F)c12` (stereo partly drawn) [Compound 309, ((3S,7aR)-7a-(((7-(8-ethyl-7-fluoro-3-hydroxynaphthalen-1-yl)-8-fluoro-4-((R)-3-hydroxy-3-methylpiperidin-1-yl)pyrido[4,3-d]pyrimidin-2-yl)oxy)methyl)hexahydro-1H-pyrrolizin-3-yl)methyl (1-(1-(2,6-dioxopiperidin-3-yl)-3-methyl-2-oxo-2,3-dihydro-1H-benzo[d]imidazol-5-yl)piperidin-3-yl)carbamate], the DC50 on KRAS G12V is 10 to 100 nM; at KRAS, 1 to 10 nM; at KRAS G12D (setting [1]), greater than 100 nM.

With `C#Cc1cc(F)cc2cc(O)cc(-c3ncc4c(N5CCC[C@@](C)(O)C5)nc(OC[C@@]56CCCN5[C@H](COC(=O)N5CCC(CN7CCC(c8ccc9c(c8)n(C)c(=O)n9C8CCC(=O)NC8=O)CC7)CC5)CC6)nc4c3F)c12` (stereo partly drawn) [Compound 405, ((3S,7aS)-7a-(((7-(8-Ethynyl-6-fluoro-3-hydroxynaphthalen-1-yl)-8-fluoro-4-((R)-3-hydroxy-3-methylpiperidin-1-yl)pyrido[4,3-d]pyrimidin-2-yl)oxy)methyl)hexahydro-1H-pyrrolizin-3-yl)methyl 4-((4-(1-(2,6-dioxopiperidin-3-yl)-3-methyl-2-oxo-2,3-dihydro-1H-benzo[d]imidazole-5-yl)piperidin-1-yl)methyl) piperidine-1-carboxylate], the DC50 at KRAS G12V was 10 to 100 nM; at KRAS, 1 to 10 nM; at KRAS G12D (class symbols) it was less than 100 nM.

For `C#Cc1c(F)ccc2cc(O)cc(-c3ncc4c(N5CCCCC5)nc(OCC5(CN6CCN(CC7CCN(c8ccc9c(c8)n(C)c(=O)n9C8CCC(=O)NC8=O)CC7)CC6)CC5)nc4c3F)c12` (centres unmarked) [Compound 15], the DC50 was greater than 100 nM on KRAS G12V, no less than 10 nM at KRAS and 100 to 300 nM at KRAS G12D (class symbols). The compound further yielded a Dmax at KRAS G12D (class symbols) greater than 50%.

Take `CCc1c(F)ccc2cc(O)cc(-c3ncc4c(N5CCC[C@@](C)(O)C5)nc(OC[C@@]56CCCN5[C@H](COc5ccc(CN7CCC(c8ccc9c(c8)n(C)c(=O)n9C8CCC(=O)NC8=O)CC7)cc5)CC6)nc4c3F)c12` (stereo partly drawn) [Compound 458, 3-(5-(1-(4-(((3S,7aS)-7a-(((7-(8-ethyl-7-fluoro-3-hydroxynaphthalen-1-yl)-8-fluoro-4-((R)-3-hydroxy-3-methylpiperidin-1-yl)pyrido[4,3-d]pyrimidin-2-yl)oxy)methyl)hexahydro-1H-pyrrolizin-3-yl)methoxy)benzyl)piperidin-4-yl)-3-methyl-2-oxo-2,3-dihydro-1H-benzo[d]imidazol-1-yl)piperidine-2,6-dione]: the figures for the DC50 at KRAS G12V, at KRAS and on KRAS G12D (class symbols) were 10 to 100 nM, less than 1 nM and less than 100 nM, respectively.

Regarding `CCc1c(F)ccc2cc(O)cc(-c3ncc4c(N5CCC(F)(F)CC5)nc(OC[C@@]56CCCN5[C@H](COC(=O)N5CCC7(CC5)CC(N5CCC(c8ccc9c(c8)n(C)c(=O)n9C8CCC(=O)NC8=O)CC5)C7)CC6)nc4c3F)c12` (stereo partly drawn) [Compound 357, ((3S,7aS)-7a-(((4-(4,4-difluoropiperidin-1-yl)-7-(8-ethyl-7-fluoro-3-hydroxynaphthalen-1-yl)-8-fluoropyrido[4,3-d]pyrimidin-2-yl)oxy)methyl)hexahydro-1H-pyrrolizin-3-yl)methyl 2-(4-(1-(2,6-dioxopiperidin-3-yl)-3-methyl-2-oxo-2,3-dihydro-1H-benzo[d]imidazol-5-yl)piperidin-1-yl)-7-azaspiro[3.5]nonane-7-carboxylate], the DC50 at KRAS G12V was greater than 100 nM; on KRAS, 1 to 10 nM; on KRAS G12D (setting [1]) it was greater than 100 nM.

In the case of `CCc1c(F)ccc2cc(O)cc(-c3ncc4c(N5CCC[C@@](C)(O)C5)nc(OC[C@@]56CCCN5[C@H](COC(=O)N5CCC(OCCCc7cccc8c7n(C)c(=O)n8C7CCC(=O)NC7=O)CC5)CC6)nc4c3F)c12` (stereo partly drawn) [Compound 2, [(3S,8S)-8-[[7-(8-Ethyl-7-fluoro-3-hydroxy-1-naphthyl)-8-fluoro-4-[(3R)-3-hydroxy-3-methyl-1-piperidyl]pyrido[4,3-d]pyrimidin-2-yl]oxymethyl]-1,2,3,5,6,7-hexahydropyrrolizin-3-yl]methyl4-[3-[1-(2,6-dioxo-3-piperidyl)-3-methyl-2-oxo-benzimidazol-4-yl]propoxy]piperidine-1-carboxylate], the DC50 at KRAS G12V is less than 10 nM; at KRAS, less than 1 nM; at KRAS G12D (class symbols), less than 100 nM. At KRAS G12D (class symbols), this compound came in with a Dmax greater than 50%.

Consider `CCc1c(F)ccc2cc(O)cc(-c3ncc4c(N5CCCC(F)(F)C5)nc(OC[C@@]56CCCN5[C@H](COC(=O)N5CC7(CC(N8CCC(c9ccc%10c(c9)n(C)c(=O)n%10C9CCC(=O)NC9=O)CC8)C7)C5)CC6)nc4c3F)c12` (stereo partly drawn) [Compound 469, ((3S,7aS)-7a-(((4-(3,3-difluoropiperidin-1-yl)-7-(8-ethyl-7-fluoro-3-hydroxynaphthalen-1-yl)-8-fluoropyrido[4,3-d]pyrimidin-2-yl)oxy)methyl)hexahydro-1H-pyrrolizin-3-yl)methyl 6-(4-(1-(2,6-dioxopiperidin-3-yl)-3-methyl-2-oxo-2,3-dihydro-1H-benzo[d]imidazol-5-yl)piperidin-1-yl)-2-azaspiro[3.3]heptane-2-carboxylate], for which the values for the DC50 on KRAS G12V, at KRAS and at KRAS G12D (class symbols) were less than 10 nM, less than 1 nM and less than 100 nM, respectively.

As to `C#Cc1c(F)ccc2cc(O)cc(-c3ncc4c(N5CCC[C@@](C)(O)C5)nc(OC[C@@]56CCCN5[C@H](COC(=O)N5CCC(COC7CN(c8ccc9c(c8)n(C)c(=O)n9C8CCC(=O)NC8=O)C7)CC5)CC6)nc4c3F)c12` (some centres unmarked) [Compound 132], the DC50 on KRAS G12V was less than 10 nM; at KRAS, 1 to 10 nM; on KRAS G12D (class symbols) it was less than 100 nM.
